Data on 1 compound can be found in patent US20250082765A1, “MOLECULES AS ANTICANCER AGENTS FOR TARGETED TREATMENT OF BREAST AND PROSTATE CANCER” (priority 2021, published 2025).

One data set can be described thus: in vivo. The following applies: albino, mouse, intravenous.
Data set [1] can be described thus: Biodistribution analysis of capecitabine in other organs (blood, liver, lungs, spleen) of mice. The following applies: later hours (1 hour, 2 hours).
Experimental: (§1) The route of administration incorporated for ester of citric acid with capecitabine and estrogen and ester of citric acid with capecitabine and dihydrotestosterone is through intravenous (IV) bolus.
(§2) The biodistribution analysis was carried out for capecitabine in plasma. […] The biodistribution analysis was carried out in breast tissue for females and in prostate gland for males along with several other organs including blood, liver, lungs and spleen.
(§3) The biodistribution analysis was carried out in three groups of albino mice. The female albino mice of age 7-8 weeks and weight 19g-35g were analyzed for the distribution of capecitabine in breast tissue. The male albino mice of age 7-8 weeks and weight 20g-30g were analyzed for the distribution of capecitabine in prostate gland. The study groups comprised of 3 groups including group 1, group 2 and group 3. The study group 1 comprised 6 mice receiving normal control, study group 2 comprised 6 mice receiving pure drug solution and study group 3 comprised 6 mice receiving molecule of formula (I) anticancer drug.
(§4) The analysis of capecitabine in plasma was initiated by liquid-liquid extraction using ethyl acetate. The extraction was carried out on ethylene bridged hybrid (BEH) C18 (100×2.1 mm, 1.7 μm) column. An isocratic flow rate of 0.5 ml/min of acetonitrile (0.1%) and 0.002M ammonium acetate as mobile phase was incorporated. Mass spectrometry analysis was carried out in multiple reaction monitoring modes. The precursor to product ion transitions with mass to ion (m/z) ratio of 360.04 to 244.08 was found for capecitabine. […] The biodistribution data for capecitabine was obtained for concentrations ranging from 5 ng/ml and 40 ng/ml.
(§5) The biodistribution of capecitabine was also analyzed for several other organs such as blood, liver, lungs and the spleen. […] The biodistribution of capecitabine was analyzed at time intervals of 0.5 hours, 1 hour and 2 hours. The biodistribution data was recorded for 6 mice.

Experimental for in vivo: as §1, §2, §3, §4, §5

Take `CCCCCOC(=O)Nc1nc(=O)n([C@@H]2O[C@H](C)[C@@H](O)[C@H]2O)cc1F` [capecitabine]: in “in vivo” (liver), the concentration at 0.5 h is 13 ng/mL. For the same compound, the concentration at 0.5 h in “in vivo” (lungs) is 12.5 ng/mL. In addition, the concentration at 0.5 h in the data set “in vivo” (spleen) came to 12.1 ng/mL. This compound also gave a concentration at 0.5 h in the data set “in vivo” (whole blood) of 13.6 ng/mL. In addition, in data set [1], the “biodistribution of capecitabine in blood” value is “negligible”, the “biodistribution of capecitabine in liver” value was “negligible”, the “biodistribution of capecitabine in lungs” value is “negligible” and the “biodistribution of capecitabine in spleen” value was “negligible”.
